Series [1] deals with hippocampal neurons. Kind of series: toxicity of compound alone in hippocampal neuronal culture. The format is cell-based, rat. As to conditions: compound alone at different concentrations. As to the method: To explore the potential biological effects of compound 22 in a TRPC3 related disease model, its neuroprotective ability in primary cultured neurons (14 DIV prepared from E17 rats as described) was evaluated. The effects on neuron dendritic morphology were measured by imaging. Mature hippocampal neurons (DIV=14) were treated with CHO control medium, or naturally secreted Aβ-containing conditioned medium (7PA2), or in combination with compound 22 or Pyr3 at different concentrations, for 16 hours, followed by immunocytochemistry using an antibody against MAP2 and DAPI (data not shown). […] Hippocampal neurons (DIV=14) were treated with compound 22 or Pyr3 alone at different concentrations, followed by immunocytochemistry staining with MAP2 and DAPI (data not shown).

Series [2] concerns pilocarpine-induced seizures. As to the kind of experiment: mouse pilocarpine model of SE. The format is in vivo, mice. As to the method:
(FIG. 7A) Mice were treated by pilocarpine (220 mg/kg, i.p.) for seizure induction, and behavioral seizures were scored every 5 min based a modified Racine scale. After stage-2 behavioral seizures were established (usually about 15-20 min after pilocarpine injection), mice were treated by either vehicle or compound 22 (100 mg/kg, i.p.). […] (FIG. 7B) Maximal seizure scores in mice after pilocarpine injection (p<0.0001, t-test). (FIG. 7C) Latency to partial (stage-3) seizures (p=0.0002, t-test). (FIG. 7D) Latency to generalized (stage-4) seizures (p=0.0001, t-test). (FIG. 7E) Percentage of animals that experienced stage-5 seizures or SE (p<0.0001, Fisher's exact test). (FIG. 7F) Percentage of animals survived pilocarpine-induced seizures (p=0.1649, Fisher's exact test). Data are presented as mean+/±SEM.
Mouse Pilocarpine Model of SE. Mice were first injected with methylscopolamine and terbutaline (2 mg/kg each in saline, i.p.) to minimize the unwanted effects of pilocarpine in the periphery. Thirty minutes later, pilocarpine (250 mg/kg in saline, freshly prepared, i.p.) was injected to induce seizures in mice. To determine the anti-seizure effects of compound 22, compound 22 was administered either before pilocarpine injection or after the behavioral seizures were well established. Control mice received methylscopolamine and terbutaline, followed by saline injection instead of pilocarpine. Behavioral seizures were classified using a modified Racine scale as we previously described (Table 5).^22-25 SE was defined by non-intermittent seizure activity (stage 5), which was indicated by continuous generalized clonic seizures without returning to lower-stage seizures (Table 5).

Series [3] deals with T1, rTRPV1 (Rattus norvegicus, UniProt O35433).
T1 construct: expressed in transfected cells; host or cells: HEK293, transient transfection, pMO vector
Kind of series: whole-cell patch clamp selectivity, HEK 293 cells overexpressing rTRPV1. The class given is cell-based. Conditions: HEK293, with agonist, solutions without Ca2+, read-out: % of the current of rTRPV1 inhibited. The protocol: (§1) Human embryonic kidney 293 (HEK293; catalog number CRL-1573) cells were cultured in Dulbecco's modified Eagle's medium (Invitrogen) supplemented with 10% fetal bovine serum and 1% penicillin-streptomycin at 37° C. and 5% CO2. Constructs cloned in pMO (a pcDNA3-modified vector) were co-transfected with GFP-pMO, using Lipofectamine 2000 (Invitrogen) according to the manufacturer's instructions. Macroscopic currents in the whole-cell patch clamp configuration were recorded 18-24 h post-transfection. The extracellular solution contained 140 mM NaCl, 6 mM KCl, 2 mM MgCl2, 10 mM HEPES, and 10 mM glucose (pH 7.4). Pipettes were made of borosilicate glass (outer diameter, 1.5 mm; inner diameter, 1.10 mm; Sutter Instruments) and fire-polished with a resistance between 2.8 and 4.0 megaohms when filled with an intracellular solution that contained 140 mM CsCl, 5 mM EGTA, and 10 mM HEPES, pH 7.2. Currents were recorded with a Multiclamp 700B amplifier (Molecular Devices) using a 1-s ramp from −100 to 100 mV. […] Data were acquired with a sampling rate of 20 kHz, low-pass filtered (10 kHz), and analyzed offline using Clampfit v10.4.2.0 (Molecular Devices). […]
(In general: The patch-clamp technique gives a direct electrical read-out from membranes.)

In series [4] the target is T2, rTRPV4 (Rattus norvegicus, UniProt Q9ERZ8).
T2 construct: expressed in transfected cells; host or cells: HEK293, transient transfection, pMO vector
Kind of series: whole-cell patch clamp selectivity, HEK 293 cells overexpressing rTRPV4. The format is cell-based. As to conditions: HEK293, with agonist, solutions without Ca2+, read-out: % of the current of rTRPV4 inhibited. The protocol:
as §1

Where [5] appears, read: single dose 100 mg/kg, i.p after onset of seizures (stage 2).

The results in this text go back to US20230265068A1, “TRANSIENT RECEPTOR POTENTIAL CANONICAL 3 INHIBITORS AND METHODS OF USE THEREOF” (University of Tennessee Research Foundation, priority 2020, published 2023).

T1 sequence (O35433 whole entry): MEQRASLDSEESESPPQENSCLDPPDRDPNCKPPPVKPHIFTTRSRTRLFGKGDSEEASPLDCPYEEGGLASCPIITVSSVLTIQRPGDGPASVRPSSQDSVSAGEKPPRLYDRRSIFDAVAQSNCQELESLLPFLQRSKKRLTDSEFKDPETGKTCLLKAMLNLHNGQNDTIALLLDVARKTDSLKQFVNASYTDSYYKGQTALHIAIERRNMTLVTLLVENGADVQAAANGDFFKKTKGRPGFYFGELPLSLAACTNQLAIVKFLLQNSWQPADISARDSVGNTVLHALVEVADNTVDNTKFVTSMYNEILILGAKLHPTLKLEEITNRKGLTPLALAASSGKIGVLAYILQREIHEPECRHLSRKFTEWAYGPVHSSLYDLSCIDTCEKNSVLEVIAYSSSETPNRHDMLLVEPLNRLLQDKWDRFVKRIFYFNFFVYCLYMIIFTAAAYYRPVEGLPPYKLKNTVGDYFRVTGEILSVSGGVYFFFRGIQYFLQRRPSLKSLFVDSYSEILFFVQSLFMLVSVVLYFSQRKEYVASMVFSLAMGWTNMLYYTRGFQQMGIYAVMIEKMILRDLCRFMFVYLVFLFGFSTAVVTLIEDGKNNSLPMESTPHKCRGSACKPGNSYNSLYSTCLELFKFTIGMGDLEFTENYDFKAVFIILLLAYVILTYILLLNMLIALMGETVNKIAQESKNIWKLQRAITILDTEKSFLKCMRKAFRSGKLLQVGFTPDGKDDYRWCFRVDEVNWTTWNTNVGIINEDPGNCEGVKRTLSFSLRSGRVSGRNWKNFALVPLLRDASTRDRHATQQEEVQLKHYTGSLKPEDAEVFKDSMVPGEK
T2 sequence (Q9ERZ8 whole entry): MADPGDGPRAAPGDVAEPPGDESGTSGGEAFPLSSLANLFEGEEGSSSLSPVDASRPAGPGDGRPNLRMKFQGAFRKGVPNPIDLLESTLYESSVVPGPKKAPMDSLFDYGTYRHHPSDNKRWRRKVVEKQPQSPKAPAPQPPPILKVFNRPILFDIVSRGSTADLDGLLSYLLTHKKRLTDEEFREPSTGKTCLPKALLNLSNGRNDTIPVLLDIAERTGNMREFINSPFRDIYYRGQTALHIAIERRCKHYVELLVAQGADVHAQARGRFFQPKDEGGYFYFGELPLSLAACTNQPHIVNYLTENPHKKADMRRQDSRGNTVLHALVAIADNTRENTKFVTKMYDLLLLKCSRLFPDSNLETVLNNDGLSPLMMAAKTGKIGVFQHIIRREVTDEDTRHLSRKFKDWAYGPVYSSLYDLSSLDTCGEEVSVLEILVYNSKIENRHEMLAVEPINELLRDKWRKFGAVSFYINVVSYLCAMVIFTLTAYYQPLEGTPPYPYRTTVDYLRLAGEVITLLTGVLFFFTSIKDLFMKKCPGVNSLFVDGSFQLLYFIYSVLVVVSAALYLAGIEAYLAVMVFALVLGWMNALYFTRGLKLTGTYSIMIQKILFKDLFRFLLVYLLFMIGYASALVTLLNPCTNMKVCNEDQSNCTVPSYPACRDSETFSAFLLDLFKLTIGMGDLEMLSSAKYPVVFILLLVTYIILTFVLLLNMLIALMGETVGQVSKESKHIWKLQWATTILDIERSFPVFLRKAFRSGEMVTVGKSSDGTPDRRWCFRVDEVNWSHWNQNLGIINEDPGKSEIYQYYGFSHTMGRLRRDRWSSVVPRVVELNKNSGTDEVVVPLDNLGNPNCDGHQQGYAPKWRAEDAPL

Regarding `CCNC(=O)c1cnn(-c2ccc(-n3ccc(Cl)c(Cl)c3=O)cc2)c1C(F)(F)F` [Compound 22], the “toxicity in neuronal culture” value in series [1] is recorded as “lack of toxicity”. For the same molecule, in series [2] (100 mg/kg, i.p. after stage-2 seizures established, vs vehicle), the “scores of pilocarpine-induced seizures (modified Racine scale)” value was “reduced the scores of pilocarpine-induced seizures”. The “electrographic seizures (electroencephalography)” value in series [2] (after pilocarpine injection) was “diminished electrographic seizures”. In series [2] (setting [5]), the “maximal seizure scores during a 90-minute observation” value is “decreased” and the overall seizure intensity result is “decreased the overall seizure intensity”. Besides, the “initiation of behavioral seizures” value in series [2] (systemic treatment before pilocarpine injection) was “significantly impaired the initiation of behavioral seizures”. Besides, the inhibition at 10 µM in series [3] was under 5%. Further, the inhibition at 10 µM in series [4] was under 5%.
